Tests used:
[1] = tested on: N=C(N)N; experiment: purified protein, by the assay type; conditions: other: Gdx-pPro, pH 7.5, mean ± SEM
[2] = target: Gdx-Eco (Escherichia coli, UniProt P69937); experiment: SSM electrophysiology of Gdx-Eco proteoliposomes; assay type: biochemical; conditions: 2 mM substrate
Experimental: (§1) Gdx-Clo ([Kermani et al., 2018]), Gdx-Eco ([Kermani et al., 2018]), EmrE ([Kermani et al., 2022]), and Gdx-pAmi ([Martinez-Vaz et al., 2022]) construct design and purification have been described previously. […] Proteins were overexpressed in C41(DE3). Expression was induced by the addition of 0.2 mM IPTG for 3 h. Cells were lysed and extracted with 2% n-decyl-β-D-maltoside (DM) for 2 h. After pelleting insoluble cell debris, proteins were purified using cobalt affinity resin. Wash buffer contained 25 mM Tris, pH 8.5, 150 mM NaCl, and 5 mM DM. For Gdx-pAmi, NaCl concentration was increased to 500 mM NaCl. The affinity column was washed with wash buffer, then wash buffer with 10 mM imidazole, prior to elution with wash buffer with 400 mM imidazole. For Gdx-Clo and Gdx-Eco, histidine tags were cleaved with LysC (200 ng/mg of protein; 2 h at room temperature; New England Biolabs), and for all others, histidine tags were cleaved with thrombin (1 U/mg of protein, overnight at room temperature; MilliporeSigma). Proteins were further purified using a gel filtration Superdex200 column (Cytiva) equilibrated with 100 mM NaCl, 10 mM N-2-hydroxyethylpiperazine-N′-2-ethanesulfonic acid (HEPES), pH 7.5, and 5 mM DM. Purified proteins were stored at 4°C for up to 5 days before detergent binding assays. To prepare proteoliposomes for electrophysiology assays, purified protein was mixed with E. coli polar lipid extract (10 mg/ml; Avanti Polar Lipids) solubilized with 35 mM 3-[(3-cholamidopropyl)dimethylammonio]-1-propanesulfonate (CHAPS) at a protein to lipid ratio of 40 μg SMR transporter: mg lipid (1:370 protein:lipid molar ratio) prior to detergent removal by dialysis. For preparations that included Fluc-Bpe, liposomes were reconstituted with a molar ratio of 0.3 Fluc-Bpe:1 SMRGdx: 5920 lipid (1 μg Fluc-Bpe and ∼2.5 μg SMRGdx per mg lipid). For liposome transport assays, proteoliposomes were prepared similarly, except that a 2:1 mixture of 1-palmitoyl, 2-oleoylphosphatidylethanolamine (POPE) and 1-palmitoyl, 2-oleoylphosphatidylglycerol (POPG) (10 mg/ml; Avanti Polar Lipids) was used with 0.2 μg protein/mg lipid. Proteoliposomes were stored at −80°C until use.
(§2) SSM experiments were performed using SURFE^2R N1 instrument (Nanion Technologies). Sensors were prepared with a 1,2-diphytanoyl-sn-glycero-3-phosphocholine (DPhPC) lipid monolayer according to published protocols ([Bazzone et al., 2017]). Each sensor’s capacitance and conductance were verified before use (<80 nF capacitance, <50 nS conductance) using Nanion software protocols. Proteoliposome stock was diluted 1:25 in assay buffer (100 mM KCl, 100 mM KPO4, pH 7.5) prior to adsorption to the DPhPC monolayer. For substrate screening experiments, reference substrate samples (Gdm^+ for SMRGdx, and TPA^+ for SMRQac) were checked periodically to test for the stability of the sensor; if the current amplitude of the reference compound differed by >10% on one sensor, it indicated the desorption of liposomes, and the sensor was not used for further experiments. For every SSM electrophysiology experiment, we used the same general solution exchange protocol: after 2 s perfusion with a non-activating solution, we perfused substrate-containing buffer for 2 s and then returned to the equilibrium condition with a 4 s perfusion of non-activating buffer. For experiments with the S104C/A70C crosslinked variant, reducing conditions were established by the addition of 2.5 mM tris(2-carboxyethyl)phosphine (TCEP) to the activating and non-activating buffers.
(§3) We screened a series of metformin metabolites for transport using SSM electrophysiology (Fig. 2, A and B).

[3] = target: T1, Gdx-Clo (Clostridiales bacterium oral taxon 876, UniProt U2EQ00); experiment: SSM electrophysiology of Gdx-Clo proteoliposomes; assay type: biochemical, Clostridales oral taxon 876; conditions: 2 mM substrate
T1 sequence (U2EQ00 1-105): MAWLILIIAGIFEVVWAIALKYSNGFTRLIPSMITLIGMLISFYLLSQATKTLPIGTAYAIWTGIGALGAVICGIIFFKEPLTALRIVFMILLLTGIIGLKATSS
Experimental: as §1, §2, §3

[4] = tested on: Gdx-pAmi; experiment: SSM electrophysiology of Gdx-pAmi proteoliposomes; assay type: biochemical, Aminobacter sp. MET; conditions: 2 mM substrate
Experimental: as §1, §2, §3

[5] = target: Gdx-pPro (Citrobacter freundii, UniProt O69279); conditions: 2 mM substrate
Chain of Gdx-pPro (O69279 2-105): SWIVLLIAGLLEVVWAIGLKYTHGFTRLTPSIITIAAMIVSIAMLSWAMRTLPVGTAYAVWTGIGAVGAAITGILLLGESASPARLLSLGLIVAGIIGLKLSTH

Chain of Gdx-Eco (P69937 whole entry): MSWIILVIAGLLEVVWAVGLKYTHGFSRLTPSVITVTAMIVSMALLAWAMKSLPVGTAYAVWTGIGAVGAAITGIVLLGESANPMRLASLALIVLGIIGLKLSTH

Question: Which Km [1] does the source give for Gdx-pPro (Citrobacter freundii) here?
Answer: Its Km is 2900 ± 500 µM.

Question: With `CN(C)C(=N)N=C(N)N` [Metformin, metformin] as the compound, how does the “Transport currents in substrate screen” value [2] read?
Answer: Its value is “currents barely above the detectable limit”.

Question: And the “Transport currents in substrate screen” value [3]?
Answer: Its value is “currents barely above the detectable limit”.

Question: And the “Transport currents in substrate screen” value [4]?
Answer: The value was “currents barely above the detectable limit”.

Question: What about the “Transport currents in substrate screen” value [5] of the same compound?
Answer: The value was “currents barely above the detectable limit”.

Question: Which results are given for `CCCCNC(=N)NC(=N)N` [buformin]?
Answer: Transport currents in substrate screen [2]: transported; Transport currents in substrate screen [4]: transported; Transport currents in substrate screen [5]: transported

Question: How did the “Transport currents in substrate screen” value [2] turn out when `CNC(=N)NC(=N)N` [methylbiguanide] was run?
Answer: Its value is “transported”.

Question: What about the “Transport currents in substrate screen” value [4] of the same compound?
Answer: Its value is “transported”.

Question: What about the “Transport currents in substrate screen” value [5] of the same compound?
Answer: The value was “transported”.
